Reference: ChEMBL document CHEMBL4402522, “Exploring the new horizons of drug repurposing: A vital tool for turning hard work into smart work” (2019)

Tests used:
[1] = test system: C6; assay: (§1) Antitumour activity against rat C6 cells implanted in Wistar rat assessed as reduction in reactive astrocytes induced peri-tumoral areas at 25 mg/kg, ip administered on alternate days in total 3 doses and measured on day 7 co-treated with temozolomide by immunohistochemical analysis relative to control; assay type: functional; parameters: scale not given: the % may be the effect or the level left
[2] = test system: C6; assay: as §1, with “induced” for “induced peri-tumoral”, “areas of blood vessels” for “areas”; assay type: functional; parameters: scale not given: the % may be the effect or the level left

CC[C@H](CO)Nc1nc(NCc2ccccc2)c2ncn(C(C)C)c2n1 [SELICICLIB]
Activity [1]: 100%
Activity [2]: 100%
